According to paper PMC4265473 (Molecular nutrition & food research, 2014):
Values joined by “and” are separate entries in the source; they are usually repeats but may differ in a detail not shown here. Identical values can stand only once. Like-named read-outs stand apart in the source and are kept apart here. Marks after values point to notes of the source that are not given here.

Columns and labels:
[1] = for unconjugated form in serum: before enzymatic deconjugation, early time points of medium and high dose subjects; for Cmax / half-life / Tmax / Vd/F: female, human, serum, po; for CL/F: oral
[2] = mean ± S.D., N = 5; for Urinary excretion (total) during the first 24 h: after enzymatic deconjugation
[3] = in the stomach; cited from earlier work
[4] = rats, 100 mg/kg XN daily by oral gavage for 5 days; cited from earlier work
[5] = rats, cited from earlier work
[6] = cited from earlier work
[7] = cited from earlier work; remark: listed apart in the source
Ishikawa cell line = conditions: read-out: EC50, estrogenicity; Ishikawa cells; cited from earlier work
[8] = female, human, in vivo
clinical = conditions: female, human, in vivo
[9] = 2 capsules/day, medium dose (2 capsules), mean ± S.D., N = 5
[10] = 2 capsules/day, T1/2, medium dose (2 capsules), mean ± S.D., N = 5
[11] = 4 capsules/day, high dose (4 capsules), mean ± S.D., N = 5
[12] = 4 capsules/day, T1/2, high dose (4 capsules), mean ± S.D., N = 5
[13] = high dose (4 capsules), mean ± S.D., N = 5
[14] = low dose (1 capsule), mean ± S.D., N = 5
[15] = medium dose (2 capsules), mean ± S.D., N = 5
[16] = half-life, across all dosages of the hop extract

| Structure (SMILES) | unconjugated form in serum [1] | Cmax [1, 9] | half-life [1, 10] | Tmax [1, 9] | Vd/F [1, 9] | Cmax [1, 11] | half-life [1, 12] | Tmax [1, 11] | Vd/F [1, 11] | CL/F [1, 13] | CL/F [1, 14] | CL/F [1, 15] | Urinary excretion (total) during the first 24 h ([2]; high dose) | Urinary excretion (% of dose) during the first 24 h ([2]; high dose) | Urinary excretion (total) during the first 24 h ([2]; low dose) | Urinary excretion (% of dose) during the first 24 h ([2]; low dose) | Urinary excretion (total) during the first 24 h ([2]; medium dose) | Urinary excretion (% of dose) during the first 24 h ([2]; medium dose) | half-life [1, 16] | other results |
| --- | --- | --- | --- | --- | --- | --- | --- | --- | --- | --- | --- | --- | --- | --- | --- | --- | --- | --- | --- | --- |
| COc1cc(O)c(CC=C(C)C)c2c1C(=O)CC(c1ccc(O)cc1)O2 (centres unmarked) [IX, isoxanthohumol] | detected | 19.1 ± 15.5 ng/mL | 24.8 ± 24.3 h | 3.2 ± 3.2 h | 99 ± 56 L | 37.6 ± 17.6 ng/mL | 19.9 ± 8.7 h | 4 ± 4.8 h | 182 ± 53 L | 7.3 ± 3.5 L/h | 7.1 ± 4.2 L/h | 5.7 ± 4.9 L/h | 172 ± 67.4 nmol | 1.902±0.746% | 29.8 ± 32.3 nmol | 1.318±1.428% | 89.5 ± 54.5 nmol | 1.98±1.205% | – | – |
| COc1cc(O)c(CC=C(C)C)c(O)c1C(=O)/C=C/c1ccc(O)cc1 [XN, xanthohumol] | detected | 22.2 ± 12.1 ng/mL | 9.5 ± 2.2 h | 3.6 ± 2.6 h | 3770 ± 1390 L | 27.6 ± 8.9 ng/mL | 20.7 ± 12.7 h | 1.8 ± 1.8 h | 7880 ± 1810 L | 329 L/h and 329 ± 163 L/h | 657 L/h and 657 ± 670 L/h | 278 L/h and 278 ± 87 L/h | 138 ± 113 nmol | 0.058±0.047% | 23.9 ± 17.9^a nmol | 0.040±0.030% | 37.0 ± 26.3 nmol | 0.031±0.022% | ~19 h | half-life of conversion to IX by acid-catalyzed cyclization [3]: 0.617 h; tissue distribution [4]: highest concentrations in the small intestine, colon and the liver; share recovered in the feces in the first 48 h ([5]; oral administration): 89%; elimination half-life ([5]; oral pure XN): 32 h; elimination half-life ([6]; humans, oral pure XN): 18 to 20 h; time of secondary peak due to enterohepatic recirculation ([6]; men and women): 4 h |
| CC(C)=CCc1c(O)cc(O)c2c1O[C@H](c1ccc(O)cc1)CC2=O [8-PN, 8-prenylnaringenin] | no free 8-PN was detected | 3.9 ± 2.6 ng/mL | > 24 h | 7 ± 9.7 h | 186 ± 186 L | 6.7 ± 3.8 ng/mL | > 24 h | 2.8 ± 4 h | 271 ± 216 L | 13.7 ± 5.5 L/h | 11.1 ± 3.4 L/h | 10.4 ± 8.1 L/h | 29.4 ± 22.9 nmol | 1.001±0.781% | 5.1 ± 4.4 nmol | 0.693±0.597% | 21.3 ± 21.6 nmol | 1.449±1.467% | > 24 h | time of secondary peak due to enterohepatic recirculation ([7]; post dose, women): 5 to 8 h; AUC0-24 ([7]; single oral dose of 50 mg 8-PN, women): 453 h^.ng/mL; share of dose recovered in feces within 48 h ([7]; single oral doses to women): 21-24%; AUC0-24 of a theoretical dose of 50 mg 8-PN in the hop extract ([1]; extrapolated assuming AUC linear with dose): 2520 h^.ng/mL; ratio of total serum concentrations 8-PN/IX ([1]; mean of the other 4 subjects, high dose): 0.14; ratio of total serum concentrations 8-PN/IX ([1]; mean value, medium dose): 0.17; ratio of total serum concentrations 8-PN/IX ([1]; one subject with higher exposure, high dose, after enzymatic deconjugation): 0.35; ratio of total serum concentrations 8-PN/IX ([1]; one subject with higher exposure, medium dose): 0.65; EC50 (Ishikawa cell line): 0.013 µM |
| CC(C)=CCc1c(O)cc2c(c1O)C(=O)C[C@@H](c1ccc(O)cc1)O2 [6-PN, 6-prenylnaringenin] | – | – | – | – | – | – | – | – | – | – | – | – | – | – | – | – | – | – | – | AUC0-24 ratios after normalization by dose [8]: 1: 1.2: 0.5; Vd/F (clinical; apparent volume of distribution): 887 to 1770 L; AUC(0-inf) (clinical; po, AUC0-inf): 69.2 ± 60 ng·h/mL; half-life (clinical; po, T1/2): 23.5 ± 6.9 h; Vd/F (clinical; po): 887 ± 581 L; half-life (clinical; po, half-life): 21 to 24 h |
